Assay results reported in patent publication US20130059818A1, “CARBOSILANE DENDRIMERS AND THE USE THEREOF AS ANTIVIRAL AGENTS” (UNIVERSIDAD DE ALCALA DE HENARES (UAH), priority 2010, published 2013).
Entries after “also recorded” stand apart in the source; their conditions may differ.

How the values were obtained:
[1] = tested on: X4 HIV NL4.3 and R5 HIV Bal; assay: CDi, CDm and macrophages pre-treatment; format: cell-based, HIV-1; conditions: pretreated 1 h, 50 ng virus
Protocol: Once the cells were differentiated, they were washed twice with PBS and 2*10^5 CDi, 2*10^5 CDm and 10^5 macrophages were dispensed in 200 μL of complete medium in bottom p96 wells. The dendrimer were added one hour prior to the infection. After adding the viral particles (50 ng), they were incubated in culture conditions and after 3 hours the supernatant was retired and washed 4 times with PBS. The supernatant was collected after 4 days. The viral concentration was quantified by ELISA.

[2] = tested on: HEC-1A (human endometrial epithelial cells); assay: LDH assay in HEC-1A; format: cell-based
From the text: This technique (CytoTox 96® Non-Radioactive Cytotoxicity Assay) was used to test the damage in the cell membrane surface due to the presence of anionic peripheral groups of dendrimers. The lactate dehydrogenase (LDH) is an enzyme that is released into the cytoplasm due to cell lysis. The LDH assay, therefore, is a measure of membrane integrity, which is based on the oxidation of LDH to pyruvate and reduction of tetrazolium salts to formazan crystals by pyruvate.
1*10^5 cells/well were dispensed in 96-well plate round bottom in a volume of 100 μL of complete medium and the dendrimer was added in a volume of 100 μL, to obtain a final volume of 200 μL in the well. Controls: 1. 200 μL of complete medium without cells (background control), 2. 100 μL of cells+100 μL of complete medium, 3. 100 μL of cells+100 μL of Triton X-100 0.2% 4. 100 μL of cells+100 μL with the dendrimer to the desired concentration. Incubated in culture conditions during the first 24 h. Plate was centrifuged at 1500 rpm 10 minutes and removed 100 μL of supernatant, being careful not to take the cells. 100 μL of reaction mixture prepared at the time on the 100 μL was added of supernatant and incubated at room temperature for 30 minutes in darkness. Finally, measured at 490 nm and 690 nm reference. The cytotoxicity was obtained from the following formula: Cytotoxicity (%)=(4−2)/(3−2)*100 […]

[3] = tested on: HIV (X4 and R5-tropic virus); assay: Inhibition of transcytosis through HEC-1A monolayer (transwell); format: cell-based
Protocol: To obtain a perfect monolayer of polarized epithelial cells, the HEC-1A were grown in complete medium on a permeable polycarbonate support of 0.4 μm pore (Costar, Cambridge, Mass.). Then, 2*10^5 cells by well were cultivated for 7 days, with media changes every 2-3 days. The dendrimer were added one hour prior to the infection. […] The viral concentration was quantified by ELISA.
To reproduce in the best possible way the role that the anionic dendrimer develop on the surface of the endometrium and to study the passage of virions through the mucosal stratified vaginal epithelium, we used transwell devices that recreate the phenomenon of transcytosis (transport of macromolecules from the extracellular space to another through the cytoplasm of a cell via an endocytic vesicle) due to the possibility of forming a perfect monolayer of adherent cells on the inside and collect information from the supernatants of the apical and basolateral side of the monolayer. […]

HIV-1 NL4.3 = assay: PBMC pre-treatment / post-treatment infection inhibition; format: cell-based
Protocol: We used 2*10^5 stimulated PBMC cells dispensed in 200 μL of complete medium in round bottom wells of p96 plate. […] After this time, the wells were washed twice with PBS and were incubated in culture conditions. The viral concentration after 3 days was quantified by ELISA of p24.

PBMC [4] = assay: LDH assay in PBMC; format: cell-based, human
From the text: This technique (CytoTox 96® Non-Radioactive Cytotoxicity Assay) was used to test the damage in the cell membrane surface due to the presence of anionic peripheral groups of dendrimers. The lactate dehydrogenase (LDH) is an enzyme that is released into the […] due to cell lysis. The LDH assay, therefore, is a measure of membrane integrity, which is based on the […] and reduction of tetrazolium salts to formazan crystals by […].
1*10^5 cells/well were dispensed in 96-well plate round bottom in a volume of 100 μL of complete medium and the dendrimer was added in a volume of 100 μL, to obtain a final volume of 200 μL in the well. Controls: 1. 200 μL of complete medium without cells (background control), 2. 100 μL of cells+100 μL of complete medium, 3. 100 μL of cells+100 μL of Triton X-100 0.2% 4. 100 μL of cells+100 μL with the dendrimer to the desired concentration. Incubated in culture conditions during the first 24 h. Plate was centrifuged at 1500 rpm 10 minutes and removed 100 μL of supernatant, being careful not to take the cells. 100 μL of reaction mixture prepared at the time on the 100 μL was added of supernatant and incubated at room temperature for 30 minutes in darkness. Finally, measured at 490 nm and 690 nm reference. The cytotoxicity was obtained from the following formula: Cytotoxicity (%)=(4−2)/(3−2)*100

NF-kB (pNF-kB-luc) = assay: Transfection of Jurkat cells with pNF-kB-luc plasmid; format: cell-based
Protocol: Inflammation experiments: the experiments were conducted with transient transfection using plasmid indicators pTNF-luc and pNF-κB-luc containing 3 copies in tandem of site NF-κB of the promoter. The Jurkat cell line was nucleofected with the AMAXA nucleofector following the commercial house protocol “cell line nucleofector kit V” and the specific programme used in the X-005. Transfected cells were stimulated for 16 hours with the different stimuli that appear in the graphs (TNF-alpha, antibody monoclonal anti-TNF-alpha and different concentrations (5 and 10 micromolar) of the anionic sulfonate dendrimer). […] The amount of protein in 5 μl of lysed cell was measured by the method of BSA-BCA (Pierce, Rockford, USA). Once quantified, the values of all the samples were normalized to 20 micrograms to measure the luciferase activity for about 10 seconds in a luminometer 1450 Microbeta Luminiscence Counter (Walax, Trilux). Luciferasa activity of firefly values are expressed as induction with respect to cells control.
Jurkat cells were transfected with the pNF-kB-luc plasmid, they were cultivated in the presence of sulfonate (10 micromolar) for 16 hours and the luciferasa activity was measured. […] The results presented are expressed as standardized induction index with the values of cell controls without treatment control and it is a representative of three independent experiments.

[5] = tested on: TNF-alpha transcriptional activity (pTNF-luc); assay: Transfection of Jurkat cells with pTNF-luc plasmid; format: cell-based; conditions: 5 and 10 micromolar, 16 hours, versus control cells without stimulating
Protocol: Inflammation experiments: the experiments were conducted with transient transfection using plasmid indicators pTNF-luc and pNF-κB-luc containing 3 copies in tandem of site NF-κB of the promoter. The Jurkat cell line was nucleofected with the AMAXA nucleofector following the commercial house protocol “cell line nucleofector kit V” and the specific programme used in the X-005. Transfected cells were stimulated for 16 hours with the different stimuli that appear in the graphs (TNF-alpha, antibody monoclonal anti-TNF-alpha and different concentrations (5 and 10 micromolar) of the anionic sulfonate dendrimer). After different treatments, the transfected cells were collected by centrifugation and lysed with commercial tampon lysis “Dual-luciferase Assay System Kit” (Promega), according to the manufacturer's recommendations. The amount of protein in 5 μl of lysed cell was measured by the method of BSA-BCA (Pierce, Rockford, USA). Once quantified, the values of all the samples were normalized to 20 micrograms to measure the luciferase activity for about 10 seconds in a luminometer 1450 Microbeta Luminiscence Counter (Walax, Trilux). Luciferasa activity of firefly values are expressed as induction with respect to cells control. […]

PBMC [6] = assay: MTT assay in PBMC; format: cell-based, human; conditions: 10 μM
Protocol: (§1) This method was selected to analyze detrimental intracellular effects on mitochondria and metabolic activity. The colorimetric MTT test, based on the selective ability of viable cells to reduce MTT to purple formazan, relies on intact metabolic activity and is frequently used for cytotoxicity screening. […] The concentration of formazan was then determined spectrophotometrically in a plate reader at a wavelength of 570 nm (test) and 690 nm (reference). The spectrophotometer was calibrated to zero absorbance by using Optimem medium without cells. The percentage cell viability relative to control wells (cells with no dendrimer) was calculated by ([A]test/[A]control)T100. […]

[7] = tested on: HIV-1 NL4.3 (X4 tropic) and HIV-1 BaL (R5 tropic); assay: Action mechanism: virus treated with dendrimer before exposure to PBMC; format: cell-based; conditions: 10 μM, 4 days of culture
Protocol: It was used for this experiment a 96 well plate of flat bottom with Poli-L-lysine (PLL, Sigma® covering the bottom of the well. For this purpose, 50 uL of PLL were incubated at 37° C. for one hour. After washing the wells three times with PBS, 4 ng of HIV were incubated overnight at 4° C., to ensure that the virus particles were adhered to the bottom of the well. Each well was washed three times with PBS to remove HIV not adhered to the plate and then each well was treated with different dendrimer concentrations for 1 h. Afterward, it was necessary to washed the product with PBS and PBMC previously stimulated were added. The supernatant of this cell culture was recovered after 4 days and p24 antigen was quantified by ELISA to assess the amount of HIV produced by the PBMC in different treatments. As positive control of lysis of the viral particles Triton x-100 (1%) was used.
After verifying the effectiveness of the dendrimer to block adherence and internalization of virus particles, we proceeded to try to understand the mechanism of action. To this end, we designed an experiment that consisted of exposing the viral particles to the presence of dendrimer, to then use this combination in stimulated PBMC cultures (prepared for the viral infection). […]

PBMC [8] = assay: Lymphoproliferative assay (BrdU incorporation); set-up: Mitogenic effect of dendrimer alone (BrdU incorporation): dose or concentration left out as unconfirmed
[9] = tested on: HEC-1A (human endometrial epithelial cells); assay: MTT assay in HEC-1A; format: cell-based; conditions: up to 10 μM, FIG. 13A
Protocol: as §1

Question: With `Cc1ccc(C(=O)Nc2ccc(S(=O)(=O)O)c3cc(S(=O)(=O)O)cc(S(=O)(=O)O)c23)cc1NC(=O)c1cccc(NC(=O)Nc2cccc(C(=O)Nc3cc(C(=O)Nc4ccc(S(=O)(=O)O)c5cc(S(=O)(=O)O)cc(S(=O)(=O)O)c45)ccc3C)c2)c1` [Suramin, reference compound] as the molecule, how does the “Decrease of p24 antigen in immature dendritic cells” value (“Decrease of p24 antigen” for short) [1] read?
Answer: significant

Question: And the LDH release ([2]; after an hour of contact)?
Answer: did not show toxicity

Question: And the “Reduction of passage of viral particles through the monolayer” value ([3]; 70 ng Bal virus, 1 h pretreatment, basolateral supernatant after 48 h, FIG. 20)?
Answer: lacks the inhibitory effect

Question: And the “Inhibitory effect on passage of viral particles through the monolayer” value ([3]; R5-tropic virus, positive control)?
Answer: no inhibitory effect

Question: For G1-[Si(CH2)3N(CH2CH2SO3Na)2]8 [G2SF16], which “Inhibition of infection, post-treatment” value (HIV-1 NL4.3; PBMC infected first, then dendrimer) is on record?
Answer: 60%

Question: What about the “Inhibition of infection, pre-treatment” value (HIV-1 NL4.3; PBMC treated with dendrimer prior to infection by HIV-1 NL4.3) of the same molecule?
Answer: 80%

Question: And the “Decrease of p24 antigen” value [1]?
Answer: significant

Question: What about the “p24 in the supernatant of macrophages” value [1] of the same molecule?
Answer: clear decrease of p24

Question: And the “Damage to the cell membrane (LDH)” value (PBMC [4])?
Answer: low damage

Question: And the “Concentration from which toxicity was presented (LDH)” value (PBMC [4]; 24 hours)?
Answer: ≥ 10 µM

Question: What about the “Activity of the pNF-kB-luc plasmid” value (NF-kB (pNF-kB-luc); 10 micromolar, 16 hours) of the same molecule?
Answer: decrease in the activity of the pNF-kB-luc plasmid; also recorded: decreases the transcriptional activity of NF-kappa

Question: And the “Induction of NF-kB-luc by TNF-alpha” value (NF-kB (pNF-kB-luc); sulfonate + TNF-alpha)?
Answer: reversal of the induction of NF-kB-luc

Question: And the “Reduction of passage of viral particles through the monolayer” value ([3]; 5 μM, both X4 and R5 virus, basolateral supernatant at 24 and 48 hours)?
Answer: 40%

Question: What about the “Promoter activity of the pTNF-luc plasmid” value [5] of the same molecule?
Answer: two to three times lower

Question: And the “Mitochondrial activity (MTT)” value (PBMC [6])?
Answer: optimal mitochondrial activity

Question: And the “HIV (p24) in supernatant of PBMC after virus treated with dendrimer” value [7]?
Answer: low prevalence of HIV

Question: What about the “Effect on mitogenic effect of PHA, treatment at the same time as PHA” value (PBMC [8]; PBMC, 4 days) of the same molecule?
Answer: slightly decreases the mitogenic effect

Question: And the “Mitogenic effect of dendrimer alone (BrdU incorporation)” value (PBMC [8]; PBMC, 4 days)?
Answer: no mitogenic effect

Question: And the “BrdU incorporation in PBMC previously stimulated with PHA” value (PBMC [8]; PHA for 3 days, then 4 days of treatment, FIG. 4B)?
Answer: decrease in BrdU incorporation; also recorded: inhibits the mitogenic effect of PHA

Question: How did the “Cell viability (MTT toxicity curve)” value [9] turn out when “ck-G1-[Si(CH2)4(N3C2H)CH2N(CH2CH2COONa)2]8 [G2CKCOO16]” was run?
Answer: good cell viability

Question: Which “Cell viability (MTT toxicity curve)” value [9] does the source give for “ck-G1-[Si(CH2)4(N3C2H)CH2N(CH2PO(OMe)2)2]8 [G2CKP32]” here?
Answer: good cell viability

Question: dextran was tested. Which “LDH in the supernatant with regard to the control” value ([2]; 24 hours of treatment) did it give?
Answer: ~10%

Question: How did the “Decrease of p24 antigen” value [1] turn out when mannan [reference compound] was run?
Answer: significant
